Patent US5512471A, “Process for purifying an α-D-galactosidase isozyme from Coffea beans” (The Curators of the University of Missouri, priority 1992, dated 1996)

tested on: α-D-galactosidase isozyme; assay: Substrate specificity with PNP and 4-MU conjugates; format: biochemical, Coffea canephora; conditions: 4-MU substrates, pH 6.0; % of activity on 4-MU-α-D-galactopyranoside
Text: Analytical procedures: Protein concentration was quantitated by the method of Bradford using bovine serum albumin (BSA) as a standard (9). […] One unit of activity was defined as 1.0 μmole of substrate hydrolyzed per minute.

RELATIVE ACTIVITY [%]	Compound
< 0.01	CC(=O)NC1C(O)CC(Oc2ccc3c(C)cc(=O)oc3c2)(C(=O)O)OC1C(O)C(O)CO (stereo not drawn) [4-MU-N-acetyl-α-neuraminic acid]
100.00	Cc1cc(=O)oc2cc(O[C@H]3O[C@H](CO)[C@H](O)[C@H](O)[C@H]3O)ccc12 [4-MU-α-D-galactopyranoside]

same assay, conditions: PNP conjugates 2.5 mM, pH 6.0; % of activity on PNP-α-D-galactopyranoside

Compound	RELATIVE ACTIVITY [%]
CC(=O)N[C@H]1[C@@H](Oc2ccc([N+](=O)[O-])cc2)O[C@H](CO)[C@H](O)[C@@H]1O [PNP-N-acetyl-α-D-galactosaminide]	< 0.06
CC(=O)N[C@H]1[C@@H](Oc2ccc([N+](=O)[O-])cc2)O[C@H](CO)[C@@H](O)[C@@H]1O [PNP-N-acetyl-α-D-glucosaminide]	< 0.06
CC(=O)N[C@H]1[C@H](Oc2ccc([N+](=O)[O-])cc2)O[C@H](CO)[C@H](O)[C@@H]1O [PNP-N-acetyl-β-D-galactosaminide]	< 0.06
CC(=O)N[C@H]1[C@H](Oc2ccc([N+](=O)[O-])cc2)O[C@H](CO)[C@@H](O)[C@@H]1O [PNP-N-acetyl-β-D-glucosaminide]	< 0.06

Second part, the compound after the results:

RELATIVE ACTIVITY [%]	Compound
100.00	O=[N+]([O-])c1ccc(O[C@H]2O[C@H](CO)[C@H](O)[C@H](O)[C@H]2O)cc1 [PNP-α-D-galactopyranoside]
< 0.06	O=[N+]([O-])c1ccc(O[C@H]2O[C@H](CO)[C@@H](O)[C@H](O)[C@H]2O)cc1 [PNP-α-D-glucopyranoside]
< 0.06	O=[N+]([O-])c1ccc(O[C@@H]2OC[C@H](O)[C@H](O)[C@H]2O)cc1 [PNP-α-L-arabinopyranoside]
< 0.06	C[C@@H]1O[C@@H](Oc2ccc([N+](=O)[O-])cc2)[C@@H](O)[C@H](O)[C@@H]1O [PNP-α-L-fucopyranoside]
< 0.06	O=[N+]([O-])c1ccc(O[C@@H]2O[C@H](CO)[C@H](O)[C@H](O)[C@H]2O)cc1 [PNP-β-D-galactopyranoside]
< 0.06	O=[N+]([O-])c1ccc(O[C@@H]2O[C@H](CO)[C@@H](O)[C@H](O)[C@H]2O)cc1 [PNP-β-D-glucopyranoside]
< 0.06	C[C@@H]1O[C@H](Oc2ccc([N+](=O)[O-])cc2)[C@@H](O)[C@H](O)[C@@H]1O [PNP-β-L-fucopyranoside]

tested on: α-D-galactosidase isozyme; assay: Km determination by varying the substrate concentration; format: biochemical, Coffea canephora; conditions: 50 mM Na citrate + 1 mg/ml BSA, pH 6.0; mean, S.D.=0.09, N=3
Description: The pH optimum was determined by incubating aliquots of the enzyme in 40 mM Na citrate +40 mN Na H2 PO4 +1 mg/ml BSA+2.5 mM PNP-α-D-galactopyranoside, pH =2.0 to 8.0. The ionic strength optimum was determined by incubating aliquots of the enzyme in 5.0 mM Na citrate +1 mg/ml BSA +2.5 mM PNP α-D-galactopyranoside +0 to 1.0M Na Cl, pH =6.0. The Km for PNP-α-D-galactopyranoside was determined by varying the substrate concentration in 50 mM Na citrate +1 mg/ml BSA, pH =6.0. The native molecular weight of the isozyme was determined by applying a concentrated portion of the enzyme to a 1.5×45 cm Sephacryl S-200 column equilibrated in 25 mM Na citrate +200 mM NaCl, pH=6.0.

Km [µM]	Compound
260	O=[N+]([O-])c1ccc(O[C@H]2O[C@H](CO)[C@H](O)[C@H](O)[C@H]2O)cc1 [PNP-α-D-galactopyranoside]
